Laboratory results from US20220178936A1, “A SENSITIVE LC-MS ASSAY TO MEASURE CURCUMINOIDS IN COMPLEX BIOLOGICAL SAMPLES” (THE REGENTS OF THE UNIVERSITY OF CALIFORNIA, priority 2019, published 2022).
Like-named read-outs stand apart in the source and are kept apart here. Each block holds one molecule with its values, some of them ahead of it.

Assays:
[1] = in vivo
Procedure: (§1) Biological samples: Human plasma. […] The tubes were centrifuged (1000 g, 15 min), and plasma was collected and stored at −80° C.
(§2) Extraction of human plasma samples and BF2 complex formation: Plasma samples were prepared in duplicate by transferring aliquots of human plasma (100 uL) to 1.5 mL microcentrifuge tubes. The internal standards (1 pmol d6C and 5 pmol d6TC in 10 uL of methanol) were added to each sample. They were briefly vortexed, then treated with cold 10 mM acetic acid in methanol (1 mL). After rigorous mixing, incubation (4° C., 60 min) and centrifugation (16,000 g, Rt, 5 min) supernatants were transferred to clean microcentrifuge tubes and dried in a vacuum centrifuge. The dried samples were tightly capped and stored in −80° C.
(§3) Analysis of the blood collected at 0, 1, 2, 3, 4, and 5 hours after compound ingestion on Day 1 and 0, 1, 2, 3, and 4 hours on Day 17 was performed.

[2] = Curcuminoids in murine tumor, brain and liver after PHRAD 129; conditions: for signal in murine tumor extract: oral PHRAD 129, 100 mg/kg daily
Procedure: Murine soft tissues. Mouse liver, brain, and tumor samples were collected from animals that had been administered a proprietary turmeric formulation (PHRAD 129, Aveta Biomics, Bedford, Mass.). After dissection, the tissues were weighed, frozen and stored at −80° C.
The samples were homogenized in a bead mill (thrice for 10 seconds each time at RT). The homogenate was vigorously mixed (5 min, RT), centrifuged (16,000 g, 5 min at RT), and the supernatant was transferred to microcentrifuge tubes and dried in a vacuum centrifuge. The dried samples were tightly capped and stored at −80° C.

[3] = BF2-curcuminoid complex stability (hydrolysis, autosampler); type: physicochemical
Procedure: Complex stability: The BF2-curcumin complexes slowly hydrolyze in water and water/methanol mixtures with a half-life of a few hours at 4° C. For applicability to an LC/MS assay on biological samples containing amounts of curcuminoids as low as 50 fmol/sample, and using an aqueous chromatographic mobile phase, it was necessary to use conditions that minimized hydrolysis. This breakdown was slowed but not averted by storing the samples at even lower temperatures (−80° C.) prior to analysis. The breakdown of the derivatives was averted by performing the reaction in glacial acetic acid and directly injecting the reaction mixture onto the LC column. Even after the injection of hundreds of samples there has been no noticeable deterioration of chromatographic reliability. Furthermore, by using a short 10 minute chromatographic gradient the hydrolysis of the complexes during chromatography was minimized. The stability of BF2-curcuminoid complex was tested to validate the assay for overnight analysis. Eight QC-mid samples were prepared, stored tightly capped to minimize contact with atmospheric moisture in the autosampler at 20° C., and each sample was analyzed every hour for up to seven hours. Except for BF2-TC, the curcuminoid complexes were stable throughout the 7 hour test period with no significant decline in peak intensity (FIG. 4).

[4] = In vivo temporal profile of plasma curcuminoids and metabolites in a human volunteer; conditions: Longvida four tablets daily for 17 consecutive days
Procedure: as §1, §2, §3

signal in human plasma extract [1]: intense peaks
signal in mouse brain extract ([2]; mouse, in vivo): not detected
signal in mouse liver extract ([2]; mouse, in vivo): not detected
Molecule: O=C(C=Cc1ccc(O)cc1)CC(=O)C=Cc1ccc(O[C@@H]2O[C@H](C(=O)O)[C@@H](O)[C@H](O)[C@H]2O)cc1 [BDMCG, bisdemethoxycurcumin glucuronide]

hydrolysis half-life ([3]; water and water/methanol mixtures, 4° C.): a few hours
Molecule: COc1cc(C=CC2=CC(C=Cc3ccc(O)c(OC)c3)=[O+][B-](F)(F)O2)ccc1O [BF2-C]

stability in autosampler (peak intensity) ([3]; glacial acetic acid reaction mixture, 20° C., 7 hour test period, QC-mid): slight loss of signal intensity
Molecule: COc1cc(CCC2=CC(CCc3ccc(O)c(OC)c3)=[O+][B-](F)(F)O2)ccc1O [BF2-TC]

signal in mouse brain extract ([2]; mouse, in vivo): measurable peaks
Molecule: COc1cc(/C=C/C(=O)CC(=O)/C=C/c2ccc(O)c(OC)c2)ccc1O [Curcumin, curcumin]

Molecule: Demethoxycurcumin
signal in mouse brain extract ([2]; after PHRAD 129): measurable peaks
signal in mouse liver extract ([2]; after PHRAD 129): measurable peaks
signal in murine tumor extract [2]: strong signals

signal in mouse liver extract ([2]; after PHRAD 129): measurable peaks
signal in murine tumor extract [2]: strong signals
Molecule: bisdemethoxycurcumin

Molecule: demethoxycurcumin glucuronide [DMCG]
signal in human plasma extract [4]: intense peaks
signal in mouse brain extract ([2]; after PHRAD 129): not detected
signal in mouse liver extract ([2]; after PHRAD 129): not detected
signal in murine tumor extract [2]: not detected

Molecule: tetrahydrocurcumin
signal in murine tumor extract [2]: strong signals
